Source: ChEMBL document CHEMBL1123958, “Synthesis and antiviral properties of (E)-5-(2-bromovinyl)-2'-deoxycytidine-related compounds” (J Med Chem, 1988)

tested on: Vaccinia virus; experiment: Concentration required to reduce vaccinia virus induced cytopathogenicity in rabbit cell kidney culture; assay type: functional, organism-based; details: Orthopoxvirus vaccinia

Question: `Nc1nc(=O)n([C@H]2C[C@H](O)[C@@H](CO)O2)cc1/C=C/Br` was tested. Which Concentration did it give?
Answer: > 400 µg/mL

Question: `CC(=O)OC[C@H]1O[C@@H](n2cc(C)c(-n3cncn3)nc2=O)C[C@@H]1OC(C)=O` was tested. Which Concentration did it give?
Answer: > 40 µg/mL

Question: For `O=c1[nH]c(=O)n([C@H]2C[C@H](O)[C@@H](CO)O2)cc1/C=C/Br` [BRIVUDINE], which Concentration is on record?
Answer: 10 µg/mL

Question: How did the Concentration turn out when `CC(=O)OC[C@H]1O[C@@H](n2cc(/C=C/Br)c(=O)[nH]c2=O)C[C@@H]1OC(C)=O` was run?
Answer: 40 µg/mL

Question: Which Concentration does the source give for `O=c1nc(-n2cncn2)c(/C=C/Br)cn1C1CC(O)C(CCl)O1` (centres undefined) here?
Answer: > 100 µg/mL

Question: With `CC(=O)OC[C@H]1O[C@@H](n2cc(/C=C/Br)c(-n3cncn3)nc2=O)C[C@@H]1OC(C)=O` as the compound, how does the Concentration read?
Answer: 20 µg/mL

Question: Which Concentration does the source give for `Cc1cn([C@H]2C[C@H](O)[C@@H](CO)O2)c(=O)nc1-n1cncn1` here?
Answer: > 40 µg/mL

Question: How did the Concentration turn out when `Cc1cn(C2CC(O)C(CCl)O2)c(=O)nc1-n1cncn1` (centres undefined) was run?
Answer: > 10 µg/mL

Question: `O=c1nc(-n2cncn2)c(/C=C/Br)cn1[C@H]1C[C@H](O)[C@@H](CO)O1` was tested. Which Concentration did it give?
Answer: 7 µg/mL
